Laboratory results published in patent publication US6358885B1, “Substituted phenylheterocyclic herbicides” (Mississippi State University, priority 1992, dated 2002).

Columns and labels:
[1] = tested on: barley; assay: Test B preemergence/postemergence greenhouse plant response rating 0 to 10; type: in vivo, Hordeum vulgare; details: for Plant response rating, Barley: 0 to 10 scale
Summary of the method: (§1)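 Both application timings were run together: seeds got compound preemergence, and established seedlings (two to eighteen cm) got it postemergence. Non-phytotoxic solvent carried the chemical. Ratings are visual, versus controls, at twelve to sixteen days.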

[2] = tested on: blackgrass; assay: as above; type: in vivo, Alopecurus myosuroides; details: for Plant response rating, Blackgrass: 0 to 10 scale
Summary of the method: as §1

[3] = tested on: cheatgrass; assay: as above; type: in vivo, Bromus secalinus; details: for Plant response rating, Cheatgrass: 0 to 10 scale
Summary of the method: as §1

[4] = tested on: crabgrass; assay: as above; type: in vivo, Digitaria spp.; details: for Plant response rating, Crabgrass: 0 to 10 scale
Summary of the method: as §1

[5] = tested on: giant foxtail; assay: as above; type: in vivo, Setaria faberii; details: 0 to 10 scale
Summary of the method: as §1

[6] = tested on: lambsquarters; assay: as above; type: in vivo, Chenopodium album; details: 0 to 10 scale
Summary of the method: as §1

[7] = tested on: rape; assay: as above; type: in vivo, Brassica napus; details: 0 to 10 scale
Summary of the method: as §1

[8] = tested on: soybean; assay: as above; type: in vivo, Glycine max; details: 0 to 10 scale
Summary of the method: as §1

[9] = tested on: velvetleaf; assay: as above; type: in vivo, Abutilon theophrasti; details: 0 to 10 scale
Summary of the method: as §1

[10] = tested on: purple nutsedge; assay: as above; type: in vivo, Cyperus rotundus; details: 0 to 10 scale
Summary of the method: as §1

[11] = tested on: barley; assay: Test C preemergence/postemergence greenhouse plant response rating 0 to 100; type: in vivo, Hordeum vulgare; details: POSTEMERGENCE; for Plant response rating Barley Igri: 0 to 100 scale
Description: (§2) The compounds evaluated in this test were formulated in a non-phytoxic solvent and applied to the soil surface before plant seedlings emerged (preemergence application), to water that covered the soil surface (flood application), and to plants that were in the one-to-four leaf stage (postemergence application). A sandy loam soil was used for the preemergence and postemergence tests, while a silt loam soil was used in the flood test. Water depth was approximately 2.5 cm for the flood test and was maintained at this level for the duration of the test. Plant species in the preemergence and postemergence tests consisted of barley (Hordeum vulgare), bedstraw (Galium aparine), blackgrass (Alopecurus myosuroides), chickweed (Stellaria media), corn (Zea mays), cotton (Gossypium hirsutum), crabgrass (Digitaria sanguinalis), downy brome (Bromus tectorum), giant foxtail (Setaria faberii), lambsquarters (Chenopodium album), morningglory (Ipomoea hederacea), pigweed ([…]), rape (Brassica napus), ryegrass (Lolium multiflorum), sorghum (Sorghum bicolor), soybean (Glycine max), speedwell (Veronica persica), sugar beet (Beta vulgaris), velvetleaf (Abutilon theophrasti), wheat (Triticum aestivum), wild buckwheat (Polygonum convolvulus), and wild oat (Avena fatua). All plant species were planted one day before application of the compound for the preemergence portion-of this test. Plantings of these species were adjusted to produce plants of appropriate size for the post-emergence portion of the test. […] All plant species were grown using normal greenhouse practices. Visual evaluations of injury expressed on treated plants, when compared to untreated controls, were recorded approximately fourteen to twenty one days after application of the test compound. […] A dash (-) response means no test result.

[12] = tested on: chickweed; assay: as above; type: in vivo, Stellaria media; details: POSTEMERGENCE; for Plant response rating, Chickweed: 0 to 100 scale
Description: as §2

[13] = tested on: lambsquarters; assay: as above; type: in vivo, Chenopodium album; details: POSTEMERGENCE; for Plant response rating Lambsquarters: 0 to 100 scale
Description: as §2

[14] = tested on: pigweed; assay: as above; type: in vivo, Amaranthusretroflexus; details: POSTEMERGENCE; for Plant response rating Pigweed: 0 to 100 scale
Description: as §2

[15] = tested on: ryegrass; assay: as above; type: in vivo, Lolium multiflorum; details: POSTEMERGENCE; for Plant response rating Ryegrass: 0 to 100 scale
Description: as §2

[16] = tested on: soybean; assay: as above; type: in vivo, Glycine max; details: POSTEMERGENCE; for Plant response rating, Soybean: 0 to 100 scale
Description: as §2

[17] = tested on: sugar beet; assay: as above; type: in vivo, Beta vulgaris; details: POSTEMERGENCE; for Plant response rating, Sugar beet: 0 to 100 scale
Description: as §2

[18] = tested on: wild buckwheat; assay: as above; type: in vivo, Polygonum convolvulus; details: POSTEMERGENCE; for Plant response rating, Wild buckwheat: 0 to 100 scale
Description: as §2

SMILES: COc1cc(-c2nn3c(c2Cl)CCCC3)c(F)cc1Cl [Compound 29]
- Plant response rating (0 to 10 scale), Barley ([1]; POSTEMERGENCE, Rate 50 g/ha): 5
- Plant response rating, Barley ([1]; POSTEMERGENCE, Rate 200 g/ha): 7
- Plant response rating, Barley ([1]; PREEMERGENCE, Rate 50 g/ha): 0
- Plant response rating, Barley ([1]; Rate 200 g/ha, PREEMERGENCE): 4
- Plant response rating (0 to 10 scale), Blackgrass ([2]; POSTEMERGENCE, Rate 50 g/ha): 3
- Plant response rating, Blackgrass ([2]; POSTEMERGENCE, Rate 200 g/ha): 6
- Plant response rating, Blackgrass ([2]; PREEMERGENCE, Rate 50 g/ha): 5
- Plant response rating, Blackgrass ([2]; Rate 200 g/ha, PREEMERGENCE): 7
- Plant response rating (0 to 10 scale), Cheatgrass ([3]; POSTEMERGENCE, Rate 50 g/ha): 4
- Plant response rating, Cheatgrass ([3]; POSTEMERGENCE, Rate 200 g/ha): 8
- Plant response rating, Cheatgrass ([3]; PREEMERGENCE, Rate 50 g/ha): 5
- Plant response rating, Cheatgrass ([3]; Rate 200 g/ha, PREEMERGENCE): 8
- Plant response rating (0 to 10 scale), Crabgrass ([4]; POSTEMERGENCE, Rate 50 g/ha): 4
- Plant response rating, Crabgrass ([4]; POSTEMERGENCE, Rate 200 g/ha): 5
- Plant response rating, Crabgrass ([4]; PREEMERGENCE, Rate 50 g/ha): 8
- Plant response rating, Crabgrass ([4]; Rate 200 g/ha, PREEMERGENCE): 9
- Plant response rating, Giant foxtail ([5]; POSTEMERGENCE, Rate 50 g/ha): 3
- Plant response rating, Giant foxtail ([5]; PREEMERGENCE, Rate 50 g/ha): 8
- Plant response rating, Giant foxtail ([5]; Rate 200 g/ha, POSTEMERGENCE): 6
- Plant response rating, Giant foxtail ([5]; Rate 200 g/ha, PREEMERGENCE): 9
- Plant response rating, Lambsquarter ([6]; POSTEMERGENCE, Rate 50 g/ha): 10
- Plant response rating, Lambsquarter ([6]; PREEMERGENCE, Rate 50 g/ha): 10
- Plant response rating, Lambsquarter ([6]; Rate 200 g/ha, POSTEMERGENCE): 10
- Plant response rating, Lambsquarter ([6]; Rate 200 g/ha, PREEMERGENCE): 10
- Plant response rating, Rape ([7]; POSTEMERGENCE, Rate 50 g/ha): 8
- Plant response rating, Rape ([7]; PREEMERGENCE, Rate 50 g/ha): 8
- Plant response rating, Rape ([7]; Rate 200 g/ha, POSTEMERGENCE): 10
- Plant response rating, Rape ([7]; Rate 200 g/ha, PREEMERGENCE): 10
- Plant response rating, Soybean ([8]; POSTEMERGENCE, Rate 50 g/ha): 8
- Plant response rating, Soybean ([8]; PREEMERGENCE, Rate 50 g/ha): 1
- Plant response rating, Soybean ([8]; Rate 200 g/ha, POSTEMERGENCE): 9
- Plant response rating, Soybean ([8]; Rate 200 g/ha, PREEMERGENCE): 5
- Plant response rating, Velvetleaf ([9]; POSTEMERGENCE, Rate 50 g/ha): 8
- Plant response rating, Velvetleaf ([9]; PREEMERGENCE, Rate 50 g/ha): 10
- Plant response rating, Velvetleaf ([9]; Rate 200 g/ha, POSTEMERGENCE): 10
- Plant response rating, Velvetleaf ([9]; Rate 200 g/ha, PREEMERGENCE): 10
- Plant response rating, Nutsedge ([10]; POSTEMERGENCE, Rate 50 g/ha): 4
- Plant response rating, Nutsedge ([10]; PREEMERGENCE, Rate 50 g/ha): 0
- Plant response rating, Nutsedge ([10]; Rate 200 g/ha, POSTEMERGENCE): 4
- Plant response rating, Nutsedge ([10]; Rate 200 g/ha, PREEMERGENCE): 0
- Plant response rating Barley Igri ([11]; 62 g/ha): 60
- Plant response rating Barley Igri ([11]; 250 g/ha): 90
- Plant response rating (0 to 100), Barley Igri ([11]; Rate 4 g/ha): 20
- Plant response rating (0 to 100), Barley Igri ([11]; Rate 16 g/ha): 40
- Plant response rating, Chickweed ([12]; 62 g/ha): 60
- Plant response rating, Chickweed ([12]; 250 g/ha): 95
- Plant response rating (0 to 100), Chickweed ([12]; Rate 4 g/ha): 10
- Plant response rating (0 to 100), Chickweed ([12]; Rate 16 g/ha): 40
- Plant response rating Lambsquarters ([13]; 62 g/ha): 100
- Plant response rating Lambsquarters ([13]; 250 g/ha): 100
- Plant response rating (0 to 100), Lambsquarters ([13]; Rate 4 g/ha): 30
- Plant response rating (0 to 100), Lambsquarters ([13]; Rate 16 g/ha): 60
- Plant response rating Pigweed ([14]; 62 g/ha): 100
- Plant response rating Pigweed ([14]; 250 g/ha): 100
- Plant response rating (0 to 100), Pigweed ([14]; Rate 4 g/ha): 50
- Plant response rating (0 to 100), Pigweed ([14]; Rate 16 g/ha): 100
- Plant response rating Ryegrass ([15]; 62 g/ha): 70
- Plant response rating Ryegrass ([15]; 250 g/ha): 90
- Plant response rating (0 to 100), Ryegrass ([15]; Rate 4 g/ha): 30
- Plant response rating (0 to 100), Ryegrass ([15]; Rate 16 g/ha): 60
- Plant response rating, Soybean ([16]; 62 g/ha): 60
- Plant response rating, Soybean ([16]; 250 g/ha): 100
- Plant response rating (0 to 100), Soybean ([16]; Rate 4 g/ha): 10
- Plant response rating (0 to 100), Soybean ([16]; Rate 16 g/ha): 50
- Plant response rating, Sugar beet ([17]; 62 g/ha): 100
- Plant response rating, Sugar beet ([17]; 250 g/ha): 100
- Plant response rating (0 to 100), Sugar beet ([17]; Rate 16 g/ha): 90
- Plant response rating, Wild buckwheat ([18]; 62 g/ha): 100
- Plant response rating, Wild buckwheat ([18]; 250 g/ha): 100
- Plant response rating (0 to 100), Wild buckwheat ([18]; Rate 4 g/ha): 80
- Plant response rating (0 to 100), Wild buckwheat ([18]; Rate 16 g/ha): 90
